In patent US20250161235A1, “STRESS TEST AND TREATMENT OF CHRONIC KIDNEY DISEASE” (Renibus Therapeutics, Inc., priority 2020, published 2025):
“Also recorded” adds a separate entry of the source.

Key:
Assay type in all cases: in vivo, humans
HO-1 = test: Plasma HO-1 levels following SnPP injection
Procedure: Plasma HO-1 levels were measured at baseline and from 1-4 days following 9, 27, or 90 mg SnPP injection. Time and dose dependent increases were observed (mean values/95% confidence intervals depicted).
The plasma HO-1 levels rose following SnPP injection in stage 3 CKD ([…]) and stage 4 CKD ([…]) participants as shown in FIG. 2. Plasma HO-1 levels were measured at baseline and from 1-4 days following 27 mg or 90 mg SnPP injection. […] P<0.001, all in-group comparisons; ANOVA, repeated measures. The mean values/95% confidence intervals are depicted.
(§1) Baseline and maximal (peak) plasma anti-oxidant protein concentrations, as generated with the highest test dose of SnPP (90 mg). CKD=CKD 3 and CKD 4 groups combined. […] The values presented are means and 95% confidence intervals. Please see the figures for change of values over time and statistics by ANOVA for repeated measures. […] The timing of the peak values were 4 days, 12 hrs, 12 hrs and 4 hrs for HO-1, ferritin, p21, and NQO1, respectively.

[1] = Estimated glomerular filtration rate after administration of 90 mg tin protoporphyrin; conditions: mean ± 1 SD
[2] = Urine biomarkers of kidney injury after administration of 90 mg tin protoporphyrin
ferritin = test: Plasma ferritin levels following SnPP injection
Procedure: Plasma ferritin levels were measured at baseline and 24+48 hrs following 90 mg SnPP injection in healthy volunteers and in CKD3/CKD4 participants. […] Means/95% confidence intervals are depicted.
as §1

NQO1 = test: Plasma and urinary NQO1 responses to 90 mg SnPP infusion
Procedure: Values are means/95% confidence intervals; urine values are after log base 10 conversion; statistics by ANOVA repeated measures, in-group comparisons.
as §1

p21 = test: Plasma p21 concentrations following SnPP injection
Procedure: There were marked variations in p21 values between participants, as reflected by large standard deviations (SDs: numbers in parentheses that appear at the bottom of the graph). (HVs=healthy volunteers; BL=baseline).
as §1

[3] = 90 mg SnPP, healthy volunteers and CKD combined

eGFR ([1]; CKD3, Day 2 post SnPP 90 mg): 50 ± 6 ml/min/1.73 m^2 | eGFR ([1]; CKD3, Day 4 post SnPP 90 mg): 47 ± 6 ml/min/1.73 m^2 | eGFR ([1]; CKD4, Day 2 post SnPP 90 mg): 23 ± 5 ml/min/1.73 m^2 | eGFR ([1]; CKD4, Day 4 post SnPP 90 mg): 22 ± 4 ml/min/1.73 m^2 | eGFR ([1]; Healthy Volunteers, Day 2 post SnPP 90 mg): 87 ± 5 ml/min/1.73 m^2 | eGFR ([1]; Healthy Volunteers, Day 4 post SnPP 90 mg): 88 ± 4 ml/min/1.73 m^2
SMILES: C=Cc1c2[n-]c(c1C)/C=c1\[n-]/c(c(C)c1C=C)=C\c1[n-]c(c(CCC(=O)O)c1C)/C=c1\[n-]c(c(C)c1CCC(=O)O)=C2.[Sn+4] [SnPP, tin protoporphyrin]
timing of the peak plasma value, HO-1 (HO-1; 90 mg SnPP): 4 days | peak plasma HO-1 value vs baseline (HO-1; [3]): significantly higher than baseline values | plasma HO-1 levels (HO-1; healthy volunteers, baseline and 1-4 days following 9, 27, or 90 mg SnPP injection): rise in a dose dependent fashion; also recorded: rose in a dose dependent fashion | plasma HO-1 levels (HO-1; stage 3 CKD and stage 4 CKD participants, 1-4 days following 27 mg or 90 mg SnPP injection): rise and Time and dose dependent HO-1 increases | urine Cystatin C ([2]; CKD 3, Day 1, mean ± 1 SD): 26.8 ± 12.9 ng/mg Cr | urine KIM-1 ([2]; CKD 3, Day 1, mean ± 1 SD): 0.8 ± 0.2 ng/mg Cr | urine NAG ([2]; CKD 3, Day 1, mean ± 1 SD): 5.66 ± 3.44 mU/mg Cr | urine NGAL ([2]; CKD 3, Day 1, mean ± 1 SD): 46.5 ± 35.3 ng/mg Cr | urine Cystatin C ([2]; CKD 3, Day 2, mean ± 1 SD): 32.2 ± 9.8 ng/mg Cr | urine KIM-1 ([2]; CKD 3, Day 2, mean ± 1 SD): 1.5 ± 0.6 ng/mg Cr | urine NAG ([2]; CKD 3, Day 2, mean ± 1 SD): 8.2 ± 3.44 mU/mg Cr | urine NGAL ([2]; CKD 3, Day 2, mean ± 1 SD): 35.8 ± 23.2 ng/mg Cr | urine Cystatin C ([2]; CKD 3, Day 3, mean ± 1 SD): 34.0 ± 9.4 ng/mg Cr | urine KIM-1 ([2]; CKD 3, Day 3, mean ± 1 SD): 1.4 ± 0.6 ng/mg Cr | urine NAG ([2]; CKD 3, Day 3, mean ± 1 SD): 6.5 ± 1.7 mU/mg Cr | urine NGAL ([2]; CKD 3, Day 3, mean ± 1 SD): 49.8 ± 39.7 ng/mg Cr | urine Cystatin C ([2]; CKD 3, Day 4, mean ± 1 SD): 33.2 ± 33.2 ng/mg Cr | urine KIM-1 ([2]; CKD 3, Day 4, mean ± 1 SD): 0.9 ± 0.2 ng/mg Cr | urine NAG ([2]; CKD 3, Day 4, mean ± 1 SD): 5.9 ± 2.1 mU/mg Cr | urine NGAL ([2]; CKD 3, Day 4, mean ± 1 SD): 42.6 ± 51.7 ng/mg Cr | urine Cystatin C ([2]; CKD 4, Day 1, mean ± 1 SD): 332 ± 519 ng/mg Cr | urine KIM-1 ([2]; CKD 4, Day 1, mean ± 1 SD): 0.8 ± 1.0 ng/mg Cr | urine NAG ([2]; CKD 4, Day 1, mean ± 1 SD): 12.5 ± 11.34 mU/mg Cr | urine NGAL ([2]; CKD 4, Day 1, mean ± 1 SD): 58.0 ± 79.1 ng/mg Cr | urine Cystatin C ([2]; CKD 4, Day 2, mean ± 1 SD): 638 ± 965 ng/mg Cr | urine KIM-1 ([2]; CKD 4, Day 2, mean ± 1 SD): 1.2 ± 1.0 ng/mg Cr | urine NAG ([2]; CKD 4, Day 2, mean ± 1 SD): 10.6 ± 7.5 mU/mg Cr | urine NGAL ([2]; CKD 4, Day 2, mean ± 1 SD): 64.8 ± 91.0 ng/mg Cr | urine Cystatin C ([2]; CKD 4, Day 3, mean ± 1 SD): 186 ± 213 ng/mg Cr | urine KIM-1 ([2]; CKD 4, Day 3, mean ± 1 SD): 1.2 ± 1.0 ng/mg Cr | urine NAG ([2]; CKD 4, Day 3, mean ± 1 SD): 10.5 ± 5.6 mU/mg Cr | urine NGAL ([2]; CKD 4, Day 3, mean ± 1 SD): 47.3 ± 60.2 ng/mg Cr | urine Cystatin C ([2]; CKD 4, Day 4, mean ± 1 SD): 207 ± 238 ng/mg Cr | urine KIM-1 ([2]; CKD 4, Day 4, mean ± 1 SD): 1.0 ± 0.8 ng/mg Cr | urine NAG ([2]; CKD 4, Day 4, mean ± 1 SD): 6.2 ± 3.4 mU/mg Cr | urine NGAL ([2]; CKD 4, Day 4, mean ± 1 SD): 48.0 ± 49.5 ng/mg Cr | urine Cystatin C ([2]; HVs, Day 1, mean ± 1 SD): 32.1 ± 15.1 ng/mg Cr | urine KIM-1 ([2]; HVs, Day 1, mean ± 1 SD): 0.7 ± 0.5 ng/mg Cr | urine NGAL ([2]; HVs, Day 1, mean ± 1 SD): 21.1 ± 28.7 ng/mg Cr | urine Cystatin C ([2]; HVs, Day 2, mean ± 1 SD): 34.8 ± 7.2 ng/mg Cr | urine KIM-1 ([2]; HVs, Day 2, mean ± 1 SD): 0.8 ± 0.7 ng/mg Cr | urine NAG ([2]; HVs, Day 2, mean ± 1 SD): 3.16 ± 1.16 mU/mg Cr | urine NGAL ([2]; HVs, Day 2, mean ± 1 SD): 14.8 ± 13.1 ng/mg Cr | urine Cystatin C ([2]; HVs, Day 3, mean ± 1 SD): 39.6 ± 9.4 ng/mg Cr | urine KIM-1 ([2]; HVs, Day 3, mean ± 1 SD): 0.7 ± 0.4 ng/mg Cr | urine NAG ([2]; HVs, Day 3, mean ± 1 SD): 2.51 ± 0.64 mU/mg Cr | urine NGAL ([2]; HVs, Day 3, mean ± 1 SD): 14.0 ± 8.7 ng/mg Cr | urine Cystatin C ([2]; HVs, Day 4, mean ± 1 SD): 40.4 ± 9.3 ng/mg Cr | urine KIM-1 ([2]; HVs, Day 4, mean ± 1 SD): 0.6 ± 0.4 ng/mg Cr | urine NAG ([2]; HVs, Day 4, mean ± 1 SD): 2.66 ± 0.8 mU/mg Cr | urine NGAL ([2]; HVs, Day 4, mean ± 1 SD): 10.2 ± 5.6 ng/mg Cr | timing of the peak plasma value, ferritin (ferritin; 90 mg SnPP): 12 h | plasma ferritin increases over baseline, CKD vs healthy volunteer groups (ferritin; 90 mg SnPP injection): comparable | peak plasma ferritin value vs baseline (ferritin; [3]): significantly higher than baseline values | plasma ferritin levels (ferritin; baseline and 24+48 hrs following 90 mg SnPP injection, healthy volunteers and CKD3/CKD4): increase; also recorded: significant plasma ferritin increases | timing of the peak plasma value, NQO1 (NQO1; 90 mg SnPP): 4 h | peak plasma NQO1 value vs baseline (NQO1; [3]): significantly higher than baseline values | plasma NQO1 (NQO1; healthy volunteer and CKD participants, 90 mg SnPP injection): acute, near identical increases | urinary NQO1/creatinine levels (NQO1; healthy volunteers and combined CKD participants, 72 hr observation period, 90 mg SnPP): significant, and progressive increases | p21 response, CKD group compared to healthy volunteer group (p21; 90 mg SnPP): significantly blunted p21 response | timing of the peak plasma value, p21 (p21; 90 mg SnPP): 12 h | peak plasma p21 value vs baseline (p21; [3]): significantly higher than baseline values | plasma p21 fold increase over baseline (mean) (p21; CKD group (combined)): 0.51 | plasma p21 (p21; healthy volunteer and CKD participants, 12 and 24 hrs post SnPP injection): plasma p21 increases | plasma p21 fold increase over baseline (mean) (p21; healthy volunteer group): 2.65
